13 compounds from patent US8344008B2 (Janssen Pharmaceutica NV, priority 2007, dated 2013) can be followed below.

pKi: −log10 of the molar value.

The experiment deals with T1, recombinant human LTA4 hydrolase (rhLTA4H) (Homo sapiens, UniProt P09960).
T1 construct: made in house; host or cells: Spodoptera frugiperda (Sf-9) cells, baculovirus (pFastBac1)
T1 sequence (P09960 1-611): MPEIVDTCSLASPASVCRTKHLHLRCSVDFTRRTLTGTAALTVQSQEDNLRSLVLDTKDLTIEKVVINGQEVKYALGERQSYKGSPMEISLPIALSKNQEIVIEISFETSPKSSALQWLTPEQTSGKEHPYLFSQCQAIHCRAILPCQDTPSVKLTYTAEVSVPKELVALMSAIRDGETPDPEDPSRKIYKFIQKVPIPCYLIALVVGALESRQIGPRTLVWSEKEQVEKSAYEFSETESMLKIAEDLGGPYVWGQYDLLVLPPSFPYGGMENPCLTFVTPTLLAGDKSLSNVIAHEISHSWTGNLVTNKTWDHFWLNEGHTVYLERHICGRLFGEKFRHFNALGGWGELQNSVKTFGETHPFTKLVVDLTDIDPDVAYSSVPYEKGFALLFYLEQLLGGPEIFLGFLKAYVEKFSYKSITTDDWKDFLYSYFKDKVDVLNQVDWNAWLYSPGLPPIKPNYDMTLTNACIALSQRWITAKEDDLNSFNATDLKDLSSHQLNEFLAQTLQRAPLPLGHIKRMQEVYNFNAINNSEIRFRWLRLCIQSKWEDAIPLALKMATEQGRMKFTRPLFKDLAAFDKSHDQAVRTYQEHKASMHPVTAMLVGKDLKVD
The experiment can be described thus: Recombinant Human LTA4 Hydrolase Assay for LTA4 Hydrolase Inhibitor Activity. Particulars: average of results obtained; LTB4 quantified by enzyme-linked immunoassay. It counts as biochemical. The essentials:
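Baculovirus/Sf-9-expressed human LTA4 hydrolase (36 ng) preincubated with compound 10 min at rt in 0.1 M potassium phosphate pH 7.4, 5 mg/mL fatty-acid-free BSA. Reaction started with 9 ng LTA4 free acid, run 10 min at rt; LTB4 measured by enzyme immunoassay, IC50 from 4-parameter fit.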
Regarding `NC(=O)N1C[C@@H]2C[C@H]1CN2Cc1cccc(Oc2nc3ccccc3s2)c1` [Example 33, (S,S)-5-[3-(Benzothiazol-2-yloxy)-benzyl]-2,5-diaza-bicyclo[2.2.1]heptane-2-carboxylic acid amide], the pKi (usually −log10 of the Ki, conventionally taken in molar units) was 6.79.
As for `CC(=O)N1C[C@@H]2C[C@H]1CN2Cc1ccc(Oc2nc3c(F)cccc3s2)cc1` [Example 207, (S,S)-1-{5-[4-(4-Fluoro-benzothiazol-2-yloxy)-benzyl]-2,5-diaza-bicyclo[2.2.1]hept-2-yl}-ethanone], the pKi is 8.22.
In the case of `CC(=O)N1C[C@H]2C[C@@H]1CN2CCc1ccc(Oc2nc3cc(F)ccc3s2)cc1` [Example 235, (R,R)-1-(5-{2-[4-(5-Fluoro-benzothiazol-2-yloxy)-phenyl]-ethyl}-2,5-diaza-bicyclo[2.2.1]hept-2-yl)-ethanone] it was 7.64; in that of `O=C(CO)N1C[C@@H]2C[C@H]1CN2CCOc1ccc(Oc2nc3ccccc3s2)cc1` [Example 23, (S,S)-1-(5-{2-[4-(Benzothiazol-2-yloxy)-phenoxy]-ethyl}-2,5-diaza-bicyclo[2.2.1]hept-2-yl)-2-hydroxy-ethanone], 7.59.
For the compound `CC(=O)N1C[C@@H]2C[C@H]1CN2Cc1cccc(Oc2nc3ccccc3s2)c1` [Example 2, (S,S)-1-{5-[3-(Benzothiazol-2-yloxy)-benzyl]-2,5-diaza-bicyclo[2.2.1]hept-2-yl}-ethanone], the pKi was 6.29.
Turning to `CC(C)(C)OC(=O)NC1(C(=O)N2C[C@@H]3C[C@H]2CN3CCOc2ccc(Oc3nc4ccccc4s3)cc2)CC1` [Example 66, (S,S)-[1-(5-{2-[4-(Benzothiazol-2-yloxy)-phenoxy]-ethyl}-2,5-diaza-bicyclo[2.2.1]heptane-2-carbonyl)-cyclopropyl]-carbamic acid tert-butyl ester], the negative logarithm of the Ki (pKi) is 6.72.
As to `NC(=O)N[C@@H]1C[C@H]2CC[C@@H](C1)N2Cc1ccc(Oc2nc3cc(F)ccc3s2)cc1` [Example 260, meso-exo-{8-[4-(5-Fluoro-benzothiazol-2-yloxy)-benzyl]-8-aza-bicylclo[3.2.1]oct-3-yl}-urea], the negative logarithm of the Ki (pKi) is 7.59.
For `NC(=O)N1[C@@H]2CC[C@H]1C[C@H](NCc1ccc(Oc3nc4cccc(F)c4s3)cc1)C2` [Example 171, meso-endo-3-[4-(7-Fluoro-benzothiazol-2-yloxy)-benzylamino]-8-aza-bicyclo[3.2.1]octane-8-carboxylic acid amide], the pKi was 6.65.
As to `NC(=O)N1C[C@H]2C[C@@H]1CN2Cc1ccc(Oc2nc3cccc(Cl)c3s2)cc1` [Example 196, (R,R)-5-[4-(7-Chloro-benzothiazol-2-yloxy)-benzyl]-2,5-diaza-bicyclo[2.2.1]heptane-2-carboxylic acid amide], the pKi is 6.10.
Regarding `NCC(=O)N1CC2CN(Cc3ccc(Oc4nc5ccccc5s4)cc3)CC2C1` (stereo not shown) [Example 97, 2-Amino-1-{5-[4-(benzothiazol-2-yloxy)-benzyl]-hexahydro-pyrrolo[3,4-c]pyrrol-2-yl}-ethanone], the pKi is 7.48.
In the case of `CS(=O)(=O)N1C[C@H]2C[C@@H]1CN2Cc1ccc(Oc2nc3cccc(F)c3s2)cc1` [Example 189, (R,R)-7-Fluoro-2-[4-(5-methanesulfonyl-2,5-diaza-bicyclo[2.2.1]hept-2-ylmethyl)-phenoxy]-benzothiazole] it was 6.43; in that of `NC(=O)N1[C@@H]2CC[C@H]1C[C@@H](NCc1ccc(Oc3nc4cccc(F)c4s3)cc1)C2` [Example 226, meso-endo-3-[4-(7-Fluoro-benzothiazol-2-yloxy)-benzylamino]-8-aza-bicyclo[3.2.1]octane-8-carboxylic acid amide], 7.05.
Turning to `CS(=O)(=O)N1C[C@H]2C[C@@H]1CN2CCc1ccc(Oc2nc3c(F)cccc3s2)cc1` [Example 241, (R,R)-4-Fluoro-2-{4-[2-(5-methanesulfonyl-2,5-diaza-bicyclo[2.2.1]hept-2-yl)-ethyl]-phenoxy}-benzothiazole], the pKi was 6.55.
